ChEMBL document CHEMBL1142681, “Three-dimensional structure-activity relationships of nonsteroidal ligands in complex with androgen receptor ligand-binding domain” (J Med Chem, 2005)
pKi: −log10 of the molar value.

Biological target: T1, Androgen receptor (Rattus norvegicus, UniProt P15207)
T1 sequence (P15207 whole entry): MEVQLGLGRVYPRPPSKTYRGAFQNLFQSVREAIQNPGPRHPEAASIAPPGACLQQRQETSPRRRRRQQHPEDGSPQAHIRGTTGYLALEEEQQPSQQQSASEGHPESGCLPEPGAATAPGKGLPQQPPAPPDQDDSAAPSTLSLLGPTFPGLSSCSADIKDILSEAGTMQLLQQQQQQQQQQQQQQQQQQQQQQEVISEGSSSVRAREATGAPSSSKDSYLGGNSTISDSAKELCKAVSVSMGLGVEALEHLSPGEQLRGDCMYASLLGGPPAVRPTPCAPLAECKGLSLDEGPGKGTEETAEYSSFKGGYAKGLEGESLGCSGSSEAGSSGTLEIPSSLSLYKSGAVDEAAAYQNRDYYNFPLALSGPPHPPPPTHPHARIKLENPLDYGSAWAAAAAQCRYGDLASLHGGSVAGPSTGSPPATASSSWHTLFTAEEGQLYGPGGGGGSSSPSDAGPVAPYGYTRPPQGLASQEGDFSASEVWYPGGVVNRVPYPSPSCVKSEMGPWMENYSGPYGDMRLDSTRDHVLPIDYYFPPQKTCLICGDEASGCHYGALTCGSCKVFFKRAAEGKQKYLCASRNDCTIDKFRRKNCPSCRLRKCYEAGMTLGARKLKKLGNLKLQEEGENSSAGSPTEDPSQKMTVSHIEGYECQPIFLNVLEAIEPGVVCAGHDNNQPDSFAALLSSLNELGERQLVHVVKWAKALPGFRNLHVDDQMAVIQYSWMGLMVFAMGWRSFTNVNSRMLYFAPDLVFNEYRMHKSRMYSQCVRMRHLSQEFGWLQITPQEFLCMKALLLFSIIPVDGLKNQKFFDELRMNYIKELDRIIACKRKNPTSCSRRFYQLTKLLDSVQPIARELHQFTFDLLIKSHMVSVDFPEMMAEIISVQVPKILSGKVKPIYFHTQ
Description: Inhibition of [3H]mibolerone binding to cytosolic androgen receptor of rat ventral prostate

| SMILES | pKi |
| --- | --- |
| CCC(=O)N(C(=O)CC)c1ccc(SC[C@](C)(O)C(=O)Nc2ccc(C#N)c(C(F)(F)F)c2)cc1 | 6.18 |
| C[C@](O)(CSc1ccc(NC(=O)CCl)cc1)C(=O)Nc1ccc([N+](=O)[O-])c(C(F)(F)F)c1 | 8.48 |
| CC(=O)Nc1ccc(S(=O)(=O)C[C@](C)(O)C(=O)Nc2ccc(C#N)c(C(F)(F)F)c2)cc1 | 7.80 |
| CC(=O)Nc1ccc(SC[C@@](C)(O)C(=O)Nc2ccc(C#N)c(C(F)(F)F)c2)cc1 | 5.86 |
| C[C@](O)(CSc1ccc(N)cc1)C(=O)Nc1ccc([N+](=O)[O-])c(C(F)(F)F)c1 | 7.24 |
| C[C@](O)(CS(=O)(=O)c1ccc(NC(=O)CCl)cc1)C(=O)Nc1ccc([N+](=O)[O-])c(C(F)(F)F)c1 | 8.16 |
| C[C@@](O)(CSc1ccc(NC(=O)CCl)cc1)C(=O)Nc1ccc([N+](=O)[O-])c(C(F)(F)F)c1 | 7.01 |
| C[C@@](O)(CS(=O)(=O)c1ccc(NC(=O)CCl)cc1)C(=O)Nc1ccc([N+](=O)[O-])c(C(F)(F)F)c1 | 6.63 |
| C[C@](O)(CSc1ccc(NS(C)(=O)=O)cc1)C(=O)Nc1ccc([N+](=O)[O-])c(C(F)(F)F)c1 | 7.30 |
| C[C@](O)(CSc1ccc(NC(=O)C(F)(F)F)cc1)C(=O)Nc1ccc([N+](=O)[O-])c(C(F)(F)F)c1 | 8.59 |
| CC(=O)Nc1ccc(SC[C@@](C)(O)C(=O)Nc2ccc([N+](=O)[O-])c(C(F)(F)F)c2)cc1 | 6.91 |
| C[C@](O)(CBr)C(=O)Nc1ccc([N+](=O)[O-])cc1 | 7.48 |
| C[C@](O)(CSc1ccc(N=C=S)cc1)C(=O)Nc1ccc2c(C(F)(F)F)cc(=O)oc2c1 | 6.87 |
| C[C@@](O)(CBr)C(=O)Nc1ccc2c(C(F)(F)F)cc(=O)oc2c1 | 6.61 |
| C[C@](O)(CSc1ccccc1)C(=O)Nc1ccc2c(C(F)(F)F)cc(=O)oc2c1 | 6.88 |
| C[C@](O)(CSc1ccc(N)cc1)C(=O)Nc1ccc2c(C(F)(F)F)cc(=O)oc2c1 | 6.54 |
| CC(=O)Nc1ccc(SC[C@](C)(O)C(=O)Nc2ccc([N+](=O)[O-])c(C(F)(F)F)c2)cc1 | 8.54 |
| CC(=O)N(C(C)=O)c1ccc(SC[C@](C)(O)C(=O)Nc2ccc(C#N)c(C(F)(F)F)c2)cc1 | 6.98 |
| C[C@](O)(CS(=O)(=O)c1ccc(NS(C)(=O)=O)cc1)C(=O)Nc1ccc([N+](=O)[O-])c(C(F)(F)F)c1 | 7.82 |
| C[C@](O)(CBr)C(=O)Nc1ccc([N+](=O)[O-])cc1[N+](=O)[O-] | 5.93 |
| C[C@](O)(CS(=O)(=O)c1ccc(N)cc1)C(=O)Nc1ccc(C#N)c(C(F)(F)F)c1 | 7.49 |
| C[C@](O)(CBr)C(=O)Nc1ccc2c(C(F)(F)F)cc(=O)oc2c1 | 6.88 |
| CCC(=O)Nc1ccc(SC[C@](C)(O)C(=O)Nc2ccc(C#N)c(C(F)(F)F)c2)cc1 | 7.57 |
| Cc1cc(=O)oc2cc(NC(=O)[C@@](C)(O)CSc3ccc(F)cc3)ccc12 | 7.04 |
| C[C@@](O)(CSc1ccc(N)cc1)C(=O)Nc1ccc([N+](=O)[O-])c(C(F)(F)F)c1 | 6.28 |
| C[C@](O)(CS(=O)(=O)c1ccc(NC(=O)C(F)(F)F)cc1)C(=O)Nc1ccc([N+](=O)[O-])c(C(F)(F)F)c1 | 8.21 |
| CC(=O)Nc1ccc(S(=O)(=O)C[C@@](C)(O)C(=O)Nc2ccc([N+](=O)[O-])c(C(F)(F)F)c2)cc1 | 6.23 |
| C[C@](O)(CBr)C(=O)Nc1ccc(N)c(C(F)(F)F)c1 | 7.09 |
| CC(=O)Nc1ccc(SC[C@](C)(O)C(=O)Nc2ccc(C#N)c(C(F)(F)F)c2)cc1 [ACETOTHIOLUTAMIDE] | 8.31 |
